# Assay results reported in patent US20080261896A1, “Testosterone generating and metabolizing enhancer” (Sinphar Pharmaceutical Co., Ltd., priority 2007, published 2008).
# Test system: mouse Leydig tumor cell line R2C
# Experiment: Test 1: testosterone generation of the mouse Leydig tumor cell line R2C (Testosterone EIA kit)
# Type: cell-based
# Conditions: R2C cells
# Source text: Test 1: Testing testosterone generation of the mouse Leydig tumor cell line R2C.
# Materials: The extract of C. tubulosa prepared in the aforesaid first embodiment, and said echinacoside and acteoside used in the second and the third embodiments. The mouse Leydig tumor cell line R2C was obtained from the Japan Health Sciences Foundation (Osaka), and a Testosterone EIA testing kit was used to test testosterone levels.
# Method: The R2C cells were subcultured in a cell medium called Ham's F10, which comprised 15% bovine serum, 2.5% fetal bovine serum, 100 units/mL penicillin G, and 100 μg/mL streptomycin. The cells were inoculated on a 24-hole plate at a density of 5×10^5 cells/mL, and 500 μL of the cell medium was added into each hole. After culturing for 24 hours, 50 μL of solutions resulted from dissolving samples from the first to the third embodiments in the same cell medium was added into each hole. After culturing for another 4 fours, the cells were collected along with the cell medium and subjected to centrifugation, so as to collect supernatant that included the cell medium. The Testosterone EIA testing kit (manufactured by Cayman Chemical Corporate) was used to determine testosterone concentrations in the each tested sample, and the results were shown in FIG. 1.
SMILES,testosterone generation (testosterone level in the supernatant) versus control (10 μg/mL),testosterone generation (testosterone level in the supernatant) versus control (30 μg/mL),testosterone generation (testosterone level in the supernatant) versus control (100 μg/mL)
C[C@@H]1O[C@@H](O[C@@H]2[C@@H](O)[C@H](OCCc3ccc(O)c(O)c3)O[C@H](CO[C@@H]3O[C@H](CO)[C@@H](O)[C@H](O)[C@H]3O)[C@H]2OC(=O)/C=C/c2ccc(O)c(O)c2)[C@H](O)[C@H](O)[C@H]1O [echinacoside],increased,increased,increased to twice as much as that of the control
C[C@@H]1O[C@@H](O[C@@H]2[C@@H](O)[C@H](OCCc3ccc(O)c(O)c3)O[C@H](CO)[C@H]2OC(=O)/C=C/c2ccc(O)c(O)c2)[C@H](O)[C@H](O)[C@H]1O [acteoside],increased,,increased
